Reference: patent US20090318396A1, “CORTICOSTEROID LINKED BETA-AGONIST COMPOUNDS FOR USE IN THERAPY” (priority 2008, published 2009)

What was measured:
[1] = tested on: ovalbumin-induced lung inflammation; experiment: Mouse ovalbumin model of lung inflammation; format: in vivo, Mice (Balb/c); settings: mouse OVA
Procedure: Mice (Balb/c) were immunized by intraperitoneal injection of ovalbumin (10 μg OVA suspended in 2 mg aluminum hydroxide) on day 0 and 7. One group was sensitized and treated with vehicle (NSV). One group was immunized with sterile water only and treated with vehicle, e.g. to serve as a nonsensitized (negative) control (Vehicle). […] On days 14 and 15, the animals were exposed to OVA by inhalation (3 h; 5 mg/m^3). Forty eight hours following the last OVA challenge (day 17) mice were sacrificed. Bronchoalveolar lavage (BAL) was taken from each animal to collect cells and fluid. Cell numbers and differentials were calculated from BAL.

[2] = tested on: airway epithelial cells cultured at an air-liquid interface; experiment: Drug metabolism in airway epithelial cells cultured at an air-liquid interface; format: in vitro ADME, human
Procedure: Cryopreserved passage 1 cells were cultured in bronchial epithelial growth medium (Fulcher, M. L., et al., Well-differentiated human airway epithelial cell cultures. Methods Mol Med, 2005. 107: p. 183-206) on 100 mm Type I collagen-coated plastic dishes. At 70% confluence, passage 2 cells were transferred to type IV collagen-coated Millicell membranes (Millipore, Bedford, Mass.) in medium that supports growth at an air-liquid-interface (ALI) (Fulcher er al., 2005). Cells were maintained at an ALI and allowed to differentiate fully for approximately 28 days. […] Approximately 1 hour prior to the start of the experiment, the apical surfaces of the cells were washed once again with PBS and the basolateral media replaced with fresh ALI media. At time=0 hrs, the test article was diluted from a 10 mM stock solution in DMSO to a 40 μM solution in ALI media/PBS/10% EtOH/water (v/v). 50 μl of the resulting 40 μM solution was immediately added to the apical surface of the cells. 200 μl of the dosing solution was also added to 800 μl of 100% ACN and frozen immediately on dry ice. The remaining dosing solution was placed in the incubator with the cells. The dosing solution and cells were allowed to incubate for 10, 120 and 240 min at which points the apical surfaces of cells from 4 millicell cell culture inserts (n=4) were washed with 3×100 μl of PBS or 10% EtOH/water (v/v) per millicell. […]

[3] = 3.0 mg/kg IT, 1x/day day 14 and 15

CC[N+](CC)(CC(=O)OCC(=O)[C@@]12O[C@H](C3CCCCC3)O[C@@H]1C[C@H]1[C@@H]3CCC4=CC(=O)C=C[C@]4(C)[C@H]3[C@@H](O)C[C@@]12C)Cc1cc(C(O)CNCCCCCCOCCCCc2ccccc2)ccc1OP(=O)(O)O.[Cl-] (stereo partly drawn) [Example 52, [5-[1-hydroxy-2-[6-(4-phenylbutoxy)hexylamino]ethyl]-2-phosphonooxybenzyl]-(diethyl)-[[11β,16α]-[[15,16-((R)-cyclohexylmethylene)bis(oxy)]-11-hydroxypregna-1,4-diene-3,20-dion-21-yl]carbonylmethyl]ammonium chloride]
Eosinophils in BAL, Mean ([1]; 0.6 mg/kg IT): 367580 mL⁻¹
Neutrophils in BAL, Mean ([1]; 0.6 mg/kg IT): 7270 mL⁻¹
Eosinophils in BAL, Mean ([1]; 1.0 mg/kg IT): 163320 mL⁻¹
Neutrophils in BAL, Mean ([1]; 1.0 mg/kg IT): 5340 mL⁻¹
Eosinophils in BAL, Mean [1, 3]: 57420 mL⁻¹
Neutrophils in BAL, Mean [1, 3]: 10370 mL⁻¹
amount of the parent compound over time ([2]; apical and cellular compartments): decreased over time
amount of salmeterol and desciclesonide over time ([2]; cellular compartment): increased in the cellular compartment
